Literature values in patent publication US9775900B2, “Photodynamic diagnosis, formulations usable as photosensitizers for this purpose, method for the production and use thereof” (Sanochemia Pharmazeutika AG, priority 2015, dated 2017).

Details: pure hypericin

In the case of Cc1cc(O)c2c(=O)c3c(O)cc(O)c4c5c(O)cc(O)c6c(=O)c7c(O)cc(C)c8c1c2c(c34)c(c78)c65 [hypericin, 1,3,4,6,8,13-hexahydroxy-10,11-dimethylphenanthro (1,10,9,8-opqra) perylene-7,14-dione], the solubility in water is given as “water-insoluble”.
